Data set [1] has as its system Mus musculus. Briefly: Anticonvulsant activity in ip dosed mouse assessed as protection against tonic-clonic seizures by maximal electroshock seizure test. It counts as functional. In general terms: In the maximal electroshock model the usual endpoint is tonic extension of the hind limbs.
Data set [2] has as its system Mus musculus. The data set is described as follows: Anticonvulsant activity in ip dosed mouse assessed as protection against ScPTZ-induced epilepsy by subcutaneous pentylenetetrazole test. In kind it is functional.
Data set [3] is described as follows: Neurotoxicity activity in ip dosed mouse assessed as induction of motor impairment by rotarod test. The following applies: in vivo. It counts as toxicity, organism-based. For orientation: Falling from the rotarod earlier than controls is read as motor impairment.
A short description of data set [4]: Protection index, ratio of TD50 for neurotoxicity in ip dosed mouse to ED50 for anticonvulsant activity in ip dosed mouse by maximal electroshock seizure test. To be noted: in vivo, read-out: PI. In kind it is toxicity, organism-based.
The nature of data set [5]: Protection index, ratio of TD50 for neurotoxicity in ip dosed mouse to ED50 for anticonvulsant activity in ip dosed mouse by subcutaneous pentylenetetrazole test. It counts as toxicity, organism-based. The following applies: in vivo, read-out: PI.

The values that follow come from ChEMBL document CHEMBL4715709, “Synthesis and evaluation of anticonvulsant properties of new N-Mannich bases derived from 3-(1-phenylethyl)- and 3-benzyl-pyrrolidine-2,5-dione” (Bioorg Med Chem Lett, 2016).

The structures appear in SMILES notation.

In general, ED50 refers to the dose at which the effect has come halfway, by size or by number of responders. One may read the TD50 as the 50% point of the dose-response relation for the toxic effect studied.

Consider `O=C1CC(C(c2ccccc2)c2ccccc2)C(=O)N1CN1CCN(c2cccc(C(F)(F)F)c2)CC1` (stereo not given), for which the ED50 is 101 mg/kg in the data set on Mus musculus [1] and 73 mg/kg in the data set on Mus musculus [2]. The TD50 in data set [3] was above 500 mg/kg. Besides, the selectivity ratio in data set [4] is above 4.95; in data set [5] it was above 6.84.
